Measurements: patent US6410567B1, “Pesticide containing a photosensitizer and an attractant” (priority 1996, dated 2002)

Columns and labels:
Type in all cases: in vivo
flies [1] = test: Effect of the attractant buminal on the intake of HP (extraction, spectrofluorimetric analysis); settings: HP 8 μmol/ml offered for 6 h, in combination with buminal vs buminal-free food
Procedure: 19. Effect of the Attractant Buminal on the Intake and Action of HP
Groups of 10 flies each were fed for two days with an aqueous solution comprising sucrose and were then fed with compositions which contained the following ingredients:
1. HP (8 μmol/ml)+buminal (1 ml)
3. HP (8 μmol/ml)+1 ml sucrose (1.4 mg/ml)
4. HP (8 μmol/ml)+buminal (0.5 ml)+sucrose (0.5 ml)
The animals were able to take in the compositions indicated above for 6 hours. Thereafter the flies were subjected to an extraction in order to extract the HP taken in, which was quantified by a spectrofluorimetric analysis. From these experiments it is clearly evident that buminal is capable of sharply increasing the intake of HP by the flies, the flies taking in about four times the quantity of photosensitizer when the latter is offered in combination with buminal, in comparison to the buminal-free food. The addition of buminal therefore strengthens the action of HP.

flies [2] = test: Mortality investigations: control flies given only HP without irradiation; settings: flies fed HP in the food, no irradiation
Procedure: An appropriate number of flies (25 for each experiment) was removed from a population and starved for 48 hours. Then, depending on the individual experimental conditions, the flies were provided with food, the control animals being fed with sugar and water while the test group received hematoporphyrin (HP; shown below) which had been added to the food. The animals were then used for the individual experiments; for example, HP was extracted or the flies were irradiated, etc.
3. Mortality Investigations
Control flies and flies fed with HP were irradiated with light sources (HQIT 400W/D OSRAM) whose emitted light is similar to sunlight. The number of survivors was plotted against the irradiation time. The HP concentration, the flux rate and the exposure time (or the total light dose) were investigated as parameters in respect of their effect on the mortality.

Ceratitis capitata = test: Comparative studies on the photoinsecticidal activity of different sensitizing compounds (percent survival after irradiation); settings: for Percent survival, 0 h after 1 h irradiation / Percent survival, 1 h after 1 h irradiation / Percent survival, 24 h after 1 h irradiation: 6 μmoles/ml photosensitizer for 24 h, 1220 μE s^−1 m^−2 for 1 h; for Percent survival, 0 h after 1 h irradiation: 0 h after irradiation; for Percent survival, 1 h after 1 h irradiation: 1 h after irradiation; for Percent survival, 24 h after 1 h irradiation: 24 h after irradiation; for Percent survival, pre-irradiation: Ceratitis capitata fed 24 h with sucrose solution containing 6 μmoles/ml photosensitizer, before irradiation
Procedure: 31. Comparative Studies on the Photosecticidal Activity of Different Sensitizing Compounds
Target: Ceratitis capitata
Light source: Sunlight-simulating halogen lamp
Light intensity (fluence rate): 1220 μE s^−1 m^−2
Groups of at least 20 flies were fed for 24 h with 3 ml of an aqueous solution containing sucrose (attractive) and 6 μmoles/ml of the photosensitizer. […]

Compound | Quantity of photosensitizer taken in with buminal in comparison to the buminal-free food (flies [1]) | Mortality or toxic effect without irradiation (flies [2]) | Percent survival, 0 h after 1 h irradiation (Ceratitis capitata) | Percent survival, 1 h after 1 h irradiation (Ceratitis capitata) | Percent survival, 24 h after 1 h irradiation (Ceratitis capitata) | Percent survival, pre-irradiation (Ceratitis capitata)
CC1=C(CCC(=O)O)c2cc3[nH]c(cc4nc(cc5[nH]c(cc1n2)c(C)c5C(C)O)C(C)=C4C(C)O)c(C)c3CCC(=O)O (stereo not drawn) [I, hematoporphyrin] | about four | In none of the experiments was mortality or a toxic effect observed | 60% | 25% | 5% | 100%
C[n+]1ccc(-c2c3nc(c(-c4cc[n+](C)cc4)c4ccc([nH]4)c(-c4cc[n+](C)cc4)c4nc(c(-c5ccccc5)c5ccc2[nH]5)C=C4)C=C3)cc1 [II, meso-tri(4N-methyl-pyridyl)-monophenyl-porphine] | – | – | 10% | 0% | 0% | 100%
O=C1OC2(c3cc(I)c(O)c(I)c3Oc3c2cc(I)c(O)c3I)c2c(Cl)c(Cl)c(Cl)c(Cl)c21 [IV, Rose bengal (tetrachloro, tetraiodo-fluorescein)] | – | – | 85% | 58% | 30% | 100%
Nc1c(S(=O)(=O)[O-])ccc2c1C(=O)c1ccccc1C2=O.[Na+] [V, 1-amino-anthraquinone-2-sulphonate (sodium salt)] | – | – | 100% | 77% | 60% | 100%
COc1ccc(NC(N)=S)cc1 [VI, 1-(4-methoxyphenyl)-2-thiourea] | – | – | 100% | 95% | 90% | 100%
O=C([O-])c1cccc2sc3ccccc3c(=O)c12.[Na+] [VII, thioxanthene-9-one-1-carbonate (sodium salt)] | – | – | 100% | 100% | 90% | 100%
Al(III)-phtalocyanine tetrasulphonate (sodium salt) | – | – | 100% | 95% | 90% | 100%
